What all share (format): functional
Assay [1] has as its system Mus musculus. The assay is described as follows: Antiinflammatory activity in Swiss mouse assessed as inhibition of serotonin-induced ear edema at 50 mg/kg, sc in presence of progesterone administered 1 hr prior to compound treatment. To be noted: route subcutaneous.
Assay [2] concerns Mus musculus. The assay is described as follows: Antiinflammatory activity in Swiss mouse assessed as inhibition of carrageenan-induced ear edema at 100 mg/kg, po administered 1 hr prior to carrageenan challenge measured after 3 hrs.
Assay [3] has as its system Mus musculus. The assay is described as follows: Antiinflammatory activity in Swiss mouse assessed as inhibition of 12-O-tetradecanoylphorbol acetate-induced ear edema at 0.5 mg/ear administered tropically.
For assay [4], the system named is Mus musculus. The assay is described as follows: Antiinflammatory activity in Swiss mouse assessed as inhibition of serotonin-induced ear edema at 50 mg/kg, sc. To be noted: route subcutaneous.
The test system of assay [5] is Mus musculus. The assay is described as follows: Antiinflammatory activity in Swiss mouse assessed as inhibition of serotonin-induced ear edema at 50 mg/kg, sc in presence of cycloheximide administered simultaneously and 1.5 hrs after compound treatment for 3 hrs. Set-up: scale not given: the % may be the effect or the level left. Conditions: route subcutaneous.
The subject of assay [6] is Mus musculus. Kind of assay: Antiinflammatory activity in Swiss mouse assessed as inhibition of serotonin-induced ear edema at 50 mg/kg, sc in presence of actinomycin D administered simultaneously and 1.5 hrs after compound treatment for 3 hrs. Set-up: scale not given: the % may be the effect or the level left. To be noted: route subcutaneous.
Assay [7] relates to Mus musculus. Kind of assay: Antiinflammatory activity in Swiss mouse assessed as inhibition of ethylphenylpropiolate-induced ear edema at 0.5 mg/ear administered tropically 16 hrs prior to ethylphenylpropiolate challenge.

Molecules are shown by their SMILES.

Experimental findings from ChEMBL document CHEMBL1159217, “Anti-inflammatory activity of saikosaponins from Heteromorpha trifoliata” (1995) are described below.

By inhibition in vivo is commonly meant the drop in the measured response relative to a control, in per cent.

`CC(=O)[C@H]1CC[C@H]2[C@@H]3CCC4=CC(=O)CC[C@]4(C)[C@H]3CC[C@]12C` [PROGESTERONE]: the inhibition in vivo at 50 mg/kg in the assay on Mus musculus [1] amounted to 44%.
Take `CO[C@@H]1C=C2[C@@H]3CC(C)(C)CC[C@]3(CO)[C@@H](O)C[C@@]2(C)[C@]2(C)CC[C@H]3[C@](C)(CO)[C@@H](O[C@@H]4O[C@H](C)[C@H](O)[C@H](O[C@@H]5O[C@H](CO)[C@@H](O)[C@H](O)[C@H]5O)[C@H]4O[C@@H]4O[C@H](CO)[C@@H](O)[C@H](O)[C@H]4O)CC[C@]3(C)[C@@H]12`: the inhibition in vivo at 100 mg/kg in the assay on Mus musculus [2] is 18%. Besides, the “inhibition (INH)” value in the assay on Mus musculus [3] is reported as 87%.
In the case of `C[C@H]1O[C@@H](O[C@H]2CC[C@@]3(C)[C@@H](CC[C@]4(C)[C@@H]3C=C[C@]35OC[C@@]6(CCC(C)(C)C[C@H]63)[C@@H](O)C[C@]54C)[C@]2(C)CO)[C@H](O[C@@H]2O[C@H](CO)[C@@H](O)[C@H](O)[C@H]2O)[C@@H](O[C@@H]2O[C@H](CO)[C@@H](O)[C@H](O)[C@H]2O)[C@H]1O` [BUDDLEJASAPONIN IV], in the assay with Mus musculus [4], the inhibition in vivo at 50 mg/kg was found to be 48%. Further, the Activity in the assay on Mus musculus [5] and in the assay on Mus musculus [6] was 14% each time. For the same compound, in the assay with Mus musculus [2], the inhibition in vivo at 100 mg/kg amounted to 23%. Also, the “inhibition (INH)” value with Mus musculus [7] was found to be 59%; in the assay on Mus musculus [3] it was 89%.
Consider `COc1ccc2c(c1)c(CC(=O)O)c(C)n2C(=O)c1ccc(Cl)cc1` [INDOMETHACIN], for which the “inhibition (INH)” value in the assay with Mus musculus [3] stood at 89%.
As for `C[C@@H]1C[C@H]2[C@@H]3CCC4=CC(=O)C=C[C@]4(C)[C@@]3(F)[C@@H](O)C[C@]2(C)[C@@]1(O)C(=O)CO` [DEXAMETHASONE], the “inhibition (INH)” value in the assay on Mus musculus [7] was found to be 82%.
